Experimental findings from PMC4526662, “A Pyranose-2-Phosphate Motif Is Responsible for Both Antibiotic Import and Quorum-Sensing Regulation in Agrobacterium tumefaciens” (PLoS Pathogens, 2015) are described below.

The target of assay [1] is T1, AccA (Agrobacterium fabrum, UniProt Q52012). Kind of assay: biochemical. The assay is classed as binding, Agrobacterium tumefaciens C58. Conditions: for fluorescence intensity / autofluorescence signal change on incubating AccA with ligand: tryptophan fluorescence, excitation 295 nm, emission 335 nm. The procedure:
Ligand binding to the protein AccA was investigated using tryptophan fluorescence spectroscopy, a method exploiting significant conformational changes accompanying the binding.
All experiments were performed at 22°C in 3 x 15 mm quartz cuvettes using Cary Eclypse spectrofluorometer (Varian) in 25 mM Tris-HCl pH 8.0 and 150 mM NaCl with a fixed amount of proteins (2 μM) and increasing concentrations of ligand. […] The data were analysed using Origin 7 software and fitted to the equation f = ΔFluorescencemax*abs(x)/(K D+abs(x)).

Assay [2] addresses T1, AccA. Kind of assay: AccA isothermal titration microcalorimetry. The assay is classed as binding, Agrobacterium tumefaciens C58. Conditions: for binding to AccA detected by microcalorimetry / TΔS / ΔG / ΔH / N (binding stoichiometry) / K (association binding constant): ITC; for K (association binding constant): Ka in M-1. The procedure: (§1) Isothermal titration microcalorimetry experiments were performed with an ITC200 isothermal titration calorimeter from MicroCal (GE Healthcare). The experiments were carried out at 20°C for AccA and 25°C for AccR. […] For agrocin 84 experiment, we inverted the protein and ligand positions: the ligand was in the cell and the protein in the syringe. This strategy was chosen to overcome the small amount of agrocin 84. The experimental data were fitted to theoretical titration curves with software supplied by MicroCal (ORIGIN). This software uses the relationship between the heat generated by each injection and ΔH (enthalpy change in Kcal.Mol-1), Ka (the association binding constant in M-1), n (the number of binding sites), total protein concentration and free and total ligand concentrations.
Target sequence in this assay (Q52012 entry or part of it): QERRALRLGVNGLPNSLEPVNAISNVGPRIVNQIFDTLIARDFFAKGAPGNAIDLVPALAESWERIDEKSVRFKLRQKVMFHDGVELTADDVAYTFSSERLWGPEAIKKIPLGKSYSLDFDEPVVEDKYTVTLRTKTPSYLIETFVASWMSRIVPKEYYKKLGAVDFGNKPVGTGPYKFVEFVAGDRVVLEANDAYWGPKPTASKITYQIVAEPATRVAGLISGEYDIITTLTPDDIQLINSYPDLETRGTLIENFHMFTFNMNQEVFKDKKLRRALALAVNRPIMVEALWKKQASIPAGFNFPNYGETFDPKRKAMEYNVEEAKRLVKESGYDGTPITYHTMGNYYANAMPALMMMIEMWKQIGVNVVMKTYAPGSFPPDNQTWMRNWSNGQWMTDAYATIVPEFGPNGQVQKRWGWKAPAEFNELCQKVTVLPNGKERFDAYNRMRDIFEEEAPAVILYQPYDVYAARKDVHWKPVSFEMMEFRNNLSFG

The target of assay [3] is T2, AccR (Agrobacterium fabrum, UniProt P32104).
T2 construct: 6-His tag (C); made in house; host or cells: E. coli C41
Kind of assay: AccR isothermal titration microcalorimetry. The format is binding, Agrobacterium tumefaciens C58. The procedure:
The question arose about their biological role in A. tumefaciens, especially in relation to regulation of the AccR/quorum-sensing pathway that controls dissemination of the Ti plasmid. We first measured the affinity of the synthetic agrocinopine A towards purified recombinant AccR by isothermal titration microcalorimetry.
as §1

Assay [4] has as its system A. tumefaciens C58. Kind of assay: Quantification of OC8HSL quorum-sensing signal in cell cultures. The assay is classed as cell-based, Agrobacterium tumefaciens. Conditions: 1 mM compound. The procedure:
(§2) In complementation assay, the accF wild-type gene was cloned into p6000 [50] plasmid and electroporated into the accF mutant. Rifampicin-resistant recipient strain C58.00 was derived from A. tumefaciens C58 cured of the At and Ti plasmids. A. tumefaciens was cultivated at 28°C in AB minimal medium containing ammonium chloride (1 g/L) and mannitol (2 g/L), or in Luria-Bertani modified medium (LBm; NaCl 5 g/L). The antibiotics gentamycin and rifampicin were added at 25 μg/mL and 100 μg/mL, respectively.
(§3) Overnight LBm cultures of recipient (C58.00) and donor (C58 control) cells were mixed in an equal ratio (1:1). 10 μl of this mix were transferred into 140 μl of AB medium supplemented with mock or 1 mM of agrocinopine A, L-arabinose-2-phosphate and glucose-2-P for static liquid cultures of 24, 48, 72 and 96 hours. Suspension dilutions of these cultures were spotted onto selective agar media to enumerate the different bacterial populations (donor, recipient and Ti plasmid transconjugants). In parallel, to quantify OC8HSLs, aliquots of cell cultures were spotted onto TLC plates (RP-18/UV254, Macherey-Nagel) and incubated with the OC8HSL-bioindicator strain A. tumefaciens NT1(pZLR4) as previously described. Tested samples were compared with a calibration curve obtained with pure OC8HSL (Sigma-Aldrich).

For assay [5], the system named is A. tumefaciens C58. Kind of assay: Ti plasmid conjugation assay. The assay is classed as cell-based, Agrobacterium tumefaciens. Conditions: for Ti plasmid transconjugants: C58 control donor with recipient C58.00, 1 mM compound; for Ti plasmid conjugation: 1 mM compound. The procedure:
as §2, §3

Assay [6] deals with A. tumefaciens C58. Kind of assay: Uptake assay: growth with compound as sole carbon source. The format is cell-based, Agrobacterium tumefaciens. The note with it: 1 mM in AB media, OD600 monitored for 48 hours. The procedure: This experiment confirmed that the transporter can uptake bulky synthetic molecules such as agrocinopine 3’-O-benzoate into the cell as observed for the toxin agrocin 84, which is also a relatively large molecule.
A single colony of Agrobacterium tumefaciens C58 with pTiC58 derivative pTi::Gm was grown overnight at 28°C in AB media supplemented with mannitol (2 g/L) and gentamicin 25 μg.ml-1. 20 ml of AB media in presence of a carbon source (agrocinopine 3’-O-benzoate or L-arabinose-2-phosphate at a final concentration of 1 mM) or in absence of any carbon source and supplemented with gentamicin (25 μg.ml-1) were inoculated at an initial OD600 of 0.03 and the OD was monitored for 48 hours.

The target in assay [7] is AccR, master transcriptional regulator (transcriptional repressor of the DeoR family) of Agrobacterium tumefaciens C58 (Agrobacterium tumefaciens C58). Kind of assay: native gel or EMSA; native gel electrophoresis of purified recombinant AccR in solution; conditions not given, no figure or methods section for this gel. Background: In EMSA bound probe runs differently from free probe, usually more slowly.

Setting [8] is: AccA 2 μM, 22°C, 25 mM Tris-HCl pH 8.0, 150 mM NaCl, one binding site model, ND: no signal detected, read-out: apparent KD (autofluorescence titration).
Where [9] appears, read: accF mutant complemented with accF wild type (p6000).

“And” between values parts separate entries of the source, which are not always exact repeats. Equal values may be shown once. “Also recorded” adds a separate entry of the source.

T2 sequence (P32104 whole entry): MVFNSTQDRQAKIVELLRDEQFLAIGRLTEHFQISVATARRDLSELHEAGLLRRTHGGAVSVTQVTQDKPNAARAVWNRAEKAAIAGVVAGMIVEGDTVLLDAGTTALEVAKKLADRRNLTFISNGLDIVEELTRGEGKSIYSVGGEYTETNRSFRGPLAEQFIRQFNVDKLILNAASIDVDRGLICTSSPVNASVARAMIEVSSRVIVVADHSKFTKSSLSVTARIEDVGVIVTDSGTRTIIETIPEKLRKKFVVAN
AccR, master transcriptional regulator (transcriptional repressor of the DeoR family) of Agrobacterium tumefaciens C58 (natural protein), sequence (O30540 whole entry): as the sequence (P32104 whole entry) above

In turn, `O=P(O)(O)O[C@H]1C(O)O[C@H](CO)[C@@H](O)[C@@H]1O` (stereo partly drawn) showed a Kd in assay [1] of 2.5 µM.
Consider `OC1OC[C@H](O)[C@H](O)[C@H]1O` (mixture of isomers) [L-arabinose, reference compound], for which the “fluorescence intensity / autofluorescence signal change on incubating AccA with ligand” value in assay [1] is on record as “No fluorescence intensity change”. Besides, the “binding to AccA detected by microcalorimetry” value in assay [2] was “No signal detected; also recorded: could not detect any binding”.
As to `CC(C)OP(=O)(O)O[C@H]1C(O)OC[C@H](O)[C@@H]1O` (stereo partly drawn) [L-arabinose-2-isopropylphosphate], the Kd in assay [1] (setting [8]) was determined as 4.79 ± 0.6 µM. Moreover, the Kd in assay [2] turned out to be 2.2 ± 0.58 µM. Further, in assay [2] (20°C), the TΔS was -8E3 cal/mol/K, the ΔG is -7.6 kcal/mol, the ΔH was -1.56E4 ± 493 cal/mol and the “K (association binding constant)” value turned out to be 4.72E5 ± 1.2E5. Besides, the “N (binding stoichiometry)” value in assay [2] (20°C, one binding site model) is reported as 1.08 ±0.03.
`O=C[C@H](OP(=O)(O)O)[C@@H](O)[C@@H](O)CO` [L-arabinose-2-phosphate]: the Kd in assay [1] (setting [8]) was 2.93 ± 0.66 µM. The Kd in assay [2] was found to be 1.33 ± 0.12 µM. In assay [2] (20°C), the TΔS is -3.2E3, the ΔG was -7.9 kcal/mol, the ΔH was -1.11E4 ± 168 cal/mol and the “K (association binding constant)” value came to 7.54E5 ±6.5E4. In addition, in assay [2] (20°C, one binding site model), the “N (binding stoichiometry)” value is listed as 0.95 ± 0.01. Besides, the Kd in assay [3] was 0.11 ± 0.06 µM. In assay [3] (ITC, 25°C), the “n1 (stoichiometry, first step)” value worked out at 0.4 and the “n2 (stoichiometry, second step)” value turned out to be 0.9. Further, the “accumulation of quorum-sensing molecules” value in assay [4] (accF defective mutant) is “still observed”. Besides, in assay [5], the Ti plasmid transconjugants result is on record as “could also be detected”. In addition, in assay [5] (accF defective mutant donor), the Ti plasmid conjugation result is “still activated”.
Consider `Nc1ncnc2c1ncn2[C@@H]1O[C@H](COP(=O)(O)O)[C@@H](O)[C@H]1O` [adenosine monophosphate, reference compound], for which, in assay [2], the “binding to AccA detected by microcalorimetry” value was “could not detect any binding”.
Turning to `O=C(OC1C(OP(=O)(O)OC2C(O)OCC(O)C2O)C(CO)OC1(CO)OC1OC(CO)C(O)C(O)C1O)c1ccccc1` (stereo not drawn) [agrocinopine 3’-O-benzoate], the Kd in assay [1] (apparent KD (autofluorescence titration), AccA 2 μM, 22°C, 25 mM Tris-HCl pH 8.0, 150 mM NaCl, one binding site model, ND: no signal detected) is 5.88 ± 1.6 µM. The Kd in assay [2] is 7.5 ± 2.2 µM. Moreover, the “fold lower affinity with AccA in comparison with agrocinopine A” value in assay [2] (ITC KD values) was 25 fold. Besides, in assay [2] (20°C), the TΔS turned out to be 3.2E3, the ΔG was -6.9 kcal/mol, the ΔH is -3.7E3 ± 374 cal/mol and the “K (association binding constant)” value is given as 1.33E5. Further, the “N (binding stoichiometry)” value in assay [2] (20°C, one binding site model) is given as 0.99 ± 0.06. Also, the “bacterial growth with compound as sole carbon source” value in assay [6] is reported as “used as nutrient by the bacteria as indicated by bacterial growth”.
As to `O=P(O)(OC1C(O)OCC(O)C1O)OC1C(CO)OC(CO)(OC2OC(CO)C(O)C(O)C2O)C1O` (stereo not drawn) [agrocinopine A], the Kd in assay [1] (setting [8]) was 1.32 µM and 1.3 µM. The compound also returned a Kd in assay [2] of 0.3 ± 0.03 µM. For the same compound, in assay [2] (20°C), the TΔS is recorded as -2.6E3, the ΔG is -8.6 kcal/mol, the ΔH is -1.12E4 ± 98 cal/mol and the “K (association binding constant)” value came to 2.99E6 ± 2.9E5. Besides, the “N (binding stoichiometry)” value in assay [2] (20°C, one binding site model) is 1 ± 0.006. Also, in assay [3] (ITC), the “affinity towards purified recombinant AccR” value is on record as “no affinity was detected”. Moreover, the “accumulation of quorum-sensing molecules” value in assay [4] (accF defective mutant) was “abolished”. The “accumulation of quorum-sensing molecules” value in assay [4] (setting [9]) is given as “restored”. For the same compound, the Ti plasmid transconjugants entry in assay [5] was “could also be detected”. In addition, in assay [5] (accF defective mutant donor), the Ti plasmid conjugation entry was “abolished”. Also, the Ti plasmid conjugation result in assay [5] (setting [9]) is reported as “restored”.
On to `O=P(O)(O)O[C@H]1O[C@H](CO)[C@@H](O)[C@H](O)[C@H]1O` [glucose-1-phosphate, reference compound], for which the “fluorescence intensity / autofluorescence signal change on incubating AccA with ligand” value in assay [1] is on record as “no autofluorescence signal changes”.
On the same count and under the same terms, the same measure for `O=C[C@H](O)[C@@H](O)[C@H](O)[C@H](O)COP(=O)(O)O` [glucose-6-phosphate, reference compound]: “no autofluorescence signal changes”.
As a reminder, the stoichiometry N is a count of units in the complex or per binding partner. With “AccR, master transcriptional regulator (transcriptional repressor of the DeoR family) of Agrobacterium tumefaciens C58 (natural protein)”, the stoichiometry N in assay [7] is 2.
For the compound agrocin 84 [reference compound], the “fluorescence intensity / autofluorescence signal change on incubating AccA with ligand” value in assay [1] is recorded as “no signal was measured”. The Kd in assay [2] (20°C, one binding site model, read-out: mean KD (isothermal titration microcalorimetry)) came to 1.5 ± 0.41 µM. In assay [2] (20°C), the TΔS is reported as -3.6E4, the ΔG is -7.7 kcal/mol, the ΔH was -43.7 ± 3.8 kcal/mol and the “K (association binding constant)” value amounted to 6.83E5 ± 1.8E5. For the same compound, in assay [2] (20°C, one binding site model), the “N (binding stoichiometry)” value turned out to be 0.8 ± 0.043.
As for phosphate [reference compound], the “fluorescence intensity / autofluorescence signal change on incubating AccA with ligand” value in assay [1] is recorded as “No fluorescence intensity change”.
